Assay results reported in BindingDB's records for patent US20250034134 (Wuhan Humanwell Innovative Drug Research and Development …, 2025).

Molecular target: T1, 15-hydroxyprostaglandin dehydrogenase [NAD(+)] (Homo sapiens, UniProt P15428)
T1 sequence (P15428 whole entry): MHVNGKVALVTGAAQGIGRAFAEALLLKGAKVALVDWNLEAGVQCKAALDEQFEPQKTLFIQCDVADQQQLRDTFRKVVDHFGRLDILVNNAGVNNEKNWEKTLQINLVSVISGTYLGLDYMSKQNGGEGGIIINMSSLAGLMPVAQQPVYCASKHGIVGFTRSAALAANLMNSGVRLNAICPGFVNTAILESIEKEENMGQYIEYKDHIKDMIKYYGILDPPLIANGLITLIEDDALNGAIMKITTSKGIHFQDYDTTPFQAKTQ
Assay: Inhibition test of compounds on 15-PGDH enzyme
Description: 15-PGDH (R&D Systems, Cat. No.: 5660-DH-010) was prepared to twice the final concentration, i.e., 30 nM, using Assay Buffer (50 mM Tris-HCl, pH 7.5, 0.01vol % Tween 20). The obtained mixture was then added to a 384-well white plate (Cisbio Bioassays, Cat. No. 66PL384025) at 8 μL/well. Negative control wells (with Assay Buffer only and without enzyme) were set. The compound was then prepared to 4 times the final concentration using Assay Buffer, i.e., diluted 3-fold to 10 concentrations starting from 4000 nM. The obtained mixture was added to the above white plate at 4 μL/well, mixed well, centrifuged at 1000 rpm for 1 minute, and incubated at 25° C. for 10 minutes. Both positive control wells (with 15-PGDH only) and negative control wells (without 15-PGDH) were set. A mixture of NAD+(Select, Cat. No. S2518) and PGE2 (R&D Systems, Cat. No.: 2296/10) was then prepared using Assay Buffer. NAD+ and PGE2 were prepared to four times their final concentrations, i.e., 2 mM and 0.12 mM, respectively, using Assay Buffer. The obtained mixture was then added to the above white plate at 4 μL/well, mixed well, centrifuged at 1000 rpm for 1 minute, and incubated at 25° C. for 30 minutes for the reaction. The fluorescence was detected at an excitation wavelength of 340 nm and an emission wavelength of 485 nm using instrument TECAN SPARK 20M.

| Structure (SMILES) | IC50 |
| --- | --- |
| CNC(=O)c1ccc(N2CC3CC3C3C=C(C(=O)N4CCC(F)(F)CC4)C=NC32)cc1F (configuration not stated) [US20250034134, Compound I-9] | 9.51 nM |
| CN1NC2C=C(N3CC4CC4C4C=C(C(=O)N5CCCC(F)(F)C5)C=NC43)C=CN2C1=O (configuration not stated) [US20250034134, Compound I-24] | 4.23 nM |
| CN1NC2C=C(N3CC4CC4C4C=C(C(=O)N5CCCC(C(F)F)C5)C=NC43)C=CN2C1=O (configuration not stated) [US20250034134, Compound I-23] | 4.26 nM |
| Cn1ccc2c(c1=O)=CCC(N1C[C@H]3C[C@@H]3C3C=C(C(=O)N4CCC(F)(F)CC4)C=NC31)C=2 (some centres not stated) [US20250034134, Compound I-12B] | 7.42 nM |
| CN1NC2C=C(N3CC4CC4C4C=C(C(=O)N5CCC6(CC5)CC6)C=NC43)C=CN2C1=O (configuration not stated) [US20250034134, Compound I-28] | 1.71 nM |
| O=C(C1=CC2C3CC3CN(C3=CC4NC=NN4C=C3)C2N=C1)N1CCC(F)(F)CC1 (configuration not stated) [US20250034134, Compound I-16] | 5.4 nM |
| N#Cc1ccc(N2CC3CC3C3C=C(C(=O)N4CCC(F)(F)CC4)C=NC32)cc1 (configuration not stated) [US20250034134, Compound I-11] | 3.8 nM |
| CN1NC2C=C(N3CC4CC4C4C=C(C(=O)N5CC6CC6C5)C=NC43)C=CN2C1=O (configuration not stated) [US20250034134, Compound I-29] | 5.3 nM |
| CN1NC2C=C(N3CC4CC4C4C=C(C(=O)N5CCC[C@@H](CF)C5)C=NC43)C=CN2C1=O (some centres not stated) [US20250034134, Compound I-30] | 6 nM |
| Cn1ccc2c(c1=O)=CCC(N1CC3CC3C3C=C(C(=O)N4CCC(F)(F)CC4)C=NC31)C=2 (configuration not stated) [US20250034134, Compound I-12] | 2.1 nM |
| Cn1nc2cc(N3CC4CC4C4C=C(C(=O)N5CCCC(C(F)(F)F)C5)C=NC43)ccn2c1=O (configuration not stated) [US20250034134, Compound I-26] | 9.9 nM |
| CN1C(=O)C2=NCC(N3CC4CC4C4C=C(C(=O)N5CCC(F)(F)CC5)C=NC43)C=C2C12CC2 (configuration not stated) [US20250034134, Compound I-19] | 3.72 nM |
| Cn1ccc2c(c1=O)=CCC(N1C[C@@H]3C[C@@H]3C3C=C(C(=O)N4CCC(F)(F)CC4)C=NC31)C=2 (some centres not stated) [US20250034134, Compound I-12A] | 1.52 nM |
| Cn1nc2cc(N3CC4CC4C4C=C(C(=O)N5CCOCC5)C=NC43)ccn2c1=O (configuration not stated) [US20250034134, Compound I-22] | 10.2 nM |
| [2H]C([2H])([2H])N1NC2C=C(N3C[C@H]4C[C@@H]4C4C=C(C(=O)N5CCC(F)(F)CC5)C=NC43)C=CN2C1=O (some centres not stated) [US20250034134, Compound I-25B] | 3.78 nM |
| CN1C=NC2C=C(N3CC4CC4C4C=C(C(=O)N5CCC(F)(F)CC5)C=CC43)C=NC2C1=O (configuration not stated) [US20250034134, Compound I-15] | 5.7 nM |
| CN1NC2C=C(N3CC4CC4C4C=C(C(=O)N5CCCC(F)C5)C=NC43)C=CN2C1=O (configuration not stated) [US20250034134, Compound I-27] | 5.7 nM |
| CN1NC2C=C(N3C[C@H]4C[C@@H]4C4C=C(C(=O)N5CCC(F)(F)CC5)C=NC43)C=CN2C1=O (some centres not stated) [US20250034134, Compound I-3B] | 3.58 nM |
| CN1NC2C=C(N3CC4CC4C4C=C(C(=O)N5CCC(F)(F)C5)C=NC43)C=CN2C1=O (configuration not stated) [US20250034134, Compound I-21] | 4.95 nM |
| [2H]C([2H])([2H])N1NC2C=C(N3CC4CC4C4C=C(C(=O)N5CCC(F)(F)CC5)C=NC43)C=CN2C1=O (configuration not stated) [US20250034134, Compound I-25] | 2.59 nM |
| CN1CC2=CC(N3CC4CC4C4C=C(C(=O)N5CCC(F)(F)CC5)C=NC43)CN=C2C1=O (configuration not stated) [US20250034134, Compound I-2] | 5.15 nM |
| O=C(C1=CC2C3CC3CN(C3=CC4NN=CN4C=C3)C2N=C1)N1CCC(F)(F)CC1 (configuration not stated) [US20250034134, Compound I-17] | 4.5 nM |
